Assay results as given in patent US20260132160A1, “IRON REPLACEMENT TREATMENTS” (The General Hospital Corporation, priority 2022, published 2026).

Assays:
[1] = biological target: apo-transferrin (Homo sapiens, UniProt P02787); test: Fe delivery to apo-transferrin (fluorescence quenching, urea gel electrophoresis); assay type: biochemical
Procedure: Incubation with FPC was positive control, the stable compound Fe-PyC3A was negative control (Conditions: 50 mM HEPES buffer supplemented with 25 mM bicarbonate, pH 7.4, 37° C.).
Transfer of Fe from Fe-BBG to apo-transferrin can be monitored through quenching of the apo-transferrin intrinsic fluorescence.
Transfer of Fe from Fe-BBG to apo-transferrin can also be monitored using urea gel electrophoresis.

[2] = pH-potentiometric titration, Fe3+ complex; assay type: physicochemical; settings: 310 K, I=0.1 M NaCl
Procedure: The aqueous solutions thermodynamics of BBG and its corresponding complexes of Fe^3+, Cu^2+, and Zn^2+ were interrogated through pH-potentiometric titration of BBG (L) in the absence and presence of 1 molar equivalent of Fe^3+, Cu^2+, or Zn^2+, FIG. 13A.
pH-potentiometric measurements were performed using an Orion ROSS Ultra pH electrode and temperature-controlled reaction vessel held at 310 K. A standardized solution of 0.10 M NaOH was used as the titrant. The electrode was calibrated prior to each titration by titrating a standardized HCl(aq) solution at ionic strength 0.10 using NaCl as the inert electrolyte with the standardized NaOH titrant. A working slope and intercept were generated by plotting mV as a function of calculated pH, which enabled direct conversion of electrode readings to [H^+] during sample titrations. pH values recorded during the titrations refers to hydrogen ion concentration. All titration samples were prepared in solutions of 0.10 M NaCl in distilled, deionized water. Ligand solutions were prepared by dissolving a weighed quantity into water and concentration was determined from the effective weight of the ligand and confirmed by the quantity of NaOH required to consume 1 molar equivalent of ligand proton. […]

[3] = tested on: Tmprss6 knockout mice; test: Tolerability after repeat dosing (clinical chemistry, liver qPCR); assay type: in vivo, mouse
Procedure: Tmprss6 knockout mice received 29 intraperitoneal injections each containing 25 μg Fe as Fe-BBG (1.3±0.18 μg Fe per gram body weight, N=5 mice, 2 male, 3 female) or containing saline (placebo, N=5 mice, 2 male, 3 female) over 15 days. The cumulative dose of Fe was 725 μg Fe (37±0.53 μg Fe per gram body weight). The mice were euthanized 120 min after the final injection. Blood was harvested for measurement of complete blood counts, and nonheme Fe parameters. Bone marrow and liver tissue were analyzed by qPCR for expression of genes related to erythropoietic activity, Fe exposure, oxidative stress, and inflammation, the data are tabulated in FIG. 15. Clinical chemistry was also recorded, see Example 16 below. FIG. 15 data are shown as mean±standard deviation. Statistical differences between groups were determined by two-tailed Student's t-test for normally distributed values or Mann-Whitney (/test for non-normally distributed values. Significant differences are indicated by *P<0.05, **P<0.01, ****P<0.0001.
FIG. 16 data are shown as mean±standard deviation. Statistical differences between groups were determined by two-tailed Student's t-test for normally distributed values or Mann-Whitney U test for non-normally distributed values. Significant differences are indicated by *P<0.05, **P<0.01, ***P<0.001, ****P<0.0001.

[4] = Stability of Fe-BBG against trans-chelation by endogenous chelators (UV-vis); assay type: physicochemical
Source text: In other words, the ligand BBG binds to Fe^3+ with an estimated 230±40 times higher affinity than citrate.

Sequence of apo-transferrin (P02787 20-698): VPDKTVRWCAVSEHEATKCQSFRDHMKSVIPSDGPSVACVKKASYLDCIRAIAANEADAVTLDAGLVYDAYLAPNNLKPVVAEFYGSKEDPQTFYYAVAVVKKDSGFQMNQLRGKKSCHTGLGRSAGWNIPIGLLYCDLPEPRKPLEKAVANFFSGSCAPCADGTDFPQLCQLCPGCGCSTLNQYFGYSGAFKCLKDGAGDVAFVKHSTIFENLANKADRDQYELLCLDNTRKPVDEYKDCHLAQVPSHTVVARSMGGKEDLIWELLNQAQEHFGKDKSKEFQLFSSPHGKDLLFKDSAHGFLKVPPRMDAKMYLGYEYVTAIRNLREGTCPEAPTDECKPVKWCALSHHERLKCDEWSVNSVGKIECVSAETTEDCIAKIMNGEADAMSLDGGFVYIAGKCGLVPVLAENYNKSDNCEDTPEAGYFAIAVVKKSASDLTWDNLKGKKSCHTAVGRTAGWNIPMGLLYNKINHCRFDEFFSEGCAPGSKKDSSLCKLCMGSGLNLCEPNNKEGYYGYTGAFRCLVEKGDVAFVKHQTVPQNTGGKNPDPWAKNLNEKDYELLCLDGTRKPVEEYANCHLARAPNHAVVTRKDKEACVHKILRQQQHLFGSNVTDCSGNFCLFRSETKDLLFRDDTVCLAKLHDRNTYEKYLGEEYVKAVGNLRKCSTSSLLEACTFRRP

Fe^3+ transfer to apo-transferrin ([1]; 50 mM HEPES, 25 mM bicarbonate, pH 7.4, 37° C.): stoichiometric transfer | Fe^3+ transferred to apo-transferrin ([1]; urea gel, 10 μM apo-transferrin, 0-10 equiv Fe-BBG): 2 molar equivalents | conditional pH 7.4 stability constant log KFeL PH 7.4 [2]: 19.51 | stability against trans-chelation by endogenous chelators [4]: stable against trans-chelation reactions | Kcomp for challenge with citrate ([4]; 0-10 molar equivalents citrate, absorbance at 465 nm, pH 7.4): 0.006±0.002 | UV-vis traces in presence of competing chelators ([4]; 0.1 mM Fe-BBG, up to 100 molar equivalents bicarbonate, acetate, lactate, phosphate, pH 7.4 50 mM HEPES): remain unchanged
SMILES: O.O.O=C([O-])CC[C@H]1C(=O)[O][Fe]2[O]c3ccccc3CN1Cc1ccccc1[O]2 [Fe-BBG]
oxidative stress ([3]; from Hmox1, Gclc, NqoI taken together): did not result in oxidative stress | Serum amyloid A1 (SaaI) expression ([3]; qPCR, marker of inflammation, repeat dosing): unchanged | liver NAD (P) H quinone dehydrogenase 1 (NqoI) expression ([3]; qPCR, repeat dosing): did not trigger upregulation | liver glutamate-cysteine ligase catalytic subunit (Gclc) expression ([3]; qPCR, repeat dosing): did not trigger upregulation | liver heme oxygenase 1 (Hmox1) expression ([3]; qPCR, repeat dosing): did not trigger upregulation | clinical chemistry parameters ([3]; repeat dosing, vs placebo): did not generate significant differences
